{
  "source": "patent US10039759B2",
  "about": "“Quinolines as FGFR kinase modulators” (priority 2011, dated 2018)",
  "key": {"[1]": {"test_system": "Ba/F3-Flt3-transfected cells", "experiment": "Ba/F3-Flt3 (minus IL3 or plus IL3) cellular proliferation assay, Alamar Blue", "type": "cell-based", "conditions": "plus IL3 (10 ng/ml murine IL3, counterscreen), 24 hours", "protocol": "Ba/F3-Flt3 (Minus IL3 or Plus IL3) (Cellular Proliferation Assay)\nIn a 384 well plate, 100 nl of compound dilution in DMSO was sprayed before adding 50 μl cell culture medium (phenol red free RPMI-1640, 10% FBS, 2 mM L-Glutamine and 50 μg/ml Gentamycin) containing 20000 cells per well of Ba/F3-Flt3-transfected cells. Cells were put in an incubator at 37° C. and 5% CO2. After 24 hours, 10 μl of Alamar Blue solution (0.5 mM K3Fe(CN)6, 0.5 mM K4Fe(CN)6, 0.15 mM Resazurin and 100 mM Phosphate Buffer) was added to the wells, incubated for 4 hours at 37° C. and 5% CO2 before RFU's (Relative Fluorescence Units) (ex. 540 nm., em. 590 nm.) were measured in a fluorescence plate reader.\nIn this assay, the inhibitory effect of different compound concentrations (range 10 μM to 0.1 nM) was determined and used to calculate an IC50 (M) and pIC50 (−log IC50) value. As a counterscreen the same experiment was performed in the presence of 10 ng/ml murine IL3."}, "[2]": {"test_system": "Ba/F3-FGFR1-transfected cells", "experiment": "Ba/F3-FGFR1 (minus IL3 or plus IL3) cellular proliferation assay, Alamar Blue", "type": "cell-based", "conditions": "plus IL3 (10 ng/ml murine IL3, counterscreen), 24 hours", "procedure,_shortened": "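Ba/F3-FGFR1 cells (20000/well) were treated with compound (10 μM–0.1 nM) for 24 h at 37 °C. Alamar Blue was then added for 4 h, with fluorescence read at ex 540/em 590 nm to give IC50/pIC50. A counterscreen was run with 10 ng/ml murine IL3.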"}},
  "data": [
    {"compound": "COc1cc(OC)cc(N(CC(O)C(F)(F)F)c2ccc3ncc(-c4cnn(C)c4)cc3c2)c1", "note": "(single isomer, unassigned) [Compound 25]", "values": [
      {"measurement": "BAF3-FLT3 (PLUS IL3 Alamar Blue pIC50)", "setting": "[1]", "result": "<5"},
      {"measurement": "BAF3-FGFR1 (PLUS IL3 pIC50)", "setting": "[2]", "result": "<5"}
    ]}
  ]
}
